Measurements published in patent publication US20230072421A1, “TARGETED RADIOPHARMACEUTICALS FOR THE DIAGNOSIS AND TREATMENT OF PROSTATE CANCER” (Bayer AS, priority 2019, published 2023).

Columns and labels:
[1] = tested on: C4-2 cells; experiment: Cell proliferation assay (CellTiter-Glo, 5-day exposure), C4-2; type: cell-based; settings: C4-2, 1000 cells/well, Th-227 labelled at 375 kBq/nmol, mean of 1 to 6 experiments
Summary of the method: (§1)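 CellTiter-Glo luminescence, day 0 (sister plates) vs day 5 of exposure to Th-227-labelled PSMA ligands. Seeding: VCaP 4000 cells/well; 22Rv1, C4-2, LNCaP 1000 cells/well; overnight 37 °C, 5% CO2 before treatment.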

[2] = tested on: VCaP cells; experiment: Cell proliferation assay (CellTiter-Glo, 5-day exposure), VCaP; type: cell-based; settings: 4000 cells/well, Th-227 labelled at 375 kBq/nmol, mean of 1 to 6 experiments
Summary of the method: as §1

[3] = tested on: LNCaP cells; experiment: Cell proliferation assay (CellTiter-Glo, 5-day exposure), LNCaP; type: cell-based, human; settings: LNCaP, 1000 cells/well; Th-227 labelled at 375 kBq/nmol; 5-day exposure; mean of 1 to 6 experiments
Experimental: Inhibition of cell proliferation of Thorium-227 labeled PMSA SMOL ligands was tested different prostate cancer cell lines, namely 22Rv1, VCaP, C4-2 (all from ATCC, Manassas, Va., USA) and LNCaP (DMSZ, Braunschweig). Cells were seeded using the following conditions in 384 well plates (Corning) in 30 μl of growth media at 4000 cells/well for VCaP cells and 1000 cells/well for 22Rv1, C4-2 and LNCaP cells.
Cells were cultivated an incubator at 37° C. and 5% C02 over night. On the following days cells were treated in triplicates with serial dilutions of PSMA-SMOLs labeled with Th-227 at a specific activity of 375 kBq/nmol (RCP>70% as assessed by iTLC analysis; compounds where RCP was between 50-70% in individual experiments are marked with an * in the table) using a D300e Digital Dispenser (Tecan). In sister plates cell viability at treatment start (d=0) was determined using CellTiter-Glo® assay (CTG, Promega, Madison, Wis., USA), by adding 30 μl per well CTG solution, incubation for 10 min and reading of Luminescence in a PheraStarFSX instrument (BMG Labtech). After a 5-day exposure in the presenced of test compounds, cell viability of treated or untreated control cells was determined again using CellTiter-Glo® assay (Promega, Madison, Wis., USA). […] The DRC software is a Biobook Spreadsheet that was developed by Bayer AG and Bayer Business Services on the IDBS E-Workbook Suite platform (IDBS: ID Business Solutions Ltd., Guildford, UK).

Row | Molecule | Proliferation assay on cancer cell lines by TTCs Default Pivot #3 IC50 [kBq/mL] C4-2 1000cells 375kBq/nmol (mean) [1] [kBq/mL] | Proliferation assay on cancer cell lines by TTCs Default Pivot #3 IC50 [kBq/mL] VCap 4000cells 375kBq/nmol (mean) [2] [kBq/mL] | Proliferation assay on cancer cell lines by TTCs Default Pivot #3 IC50 [kBq/mL] LnCap 1000cells 375kBq/nmol (mean) [3] [kBq/mL]
1 | {N^6-[3-(isoquinolin-3-yl)-N-{(1r,4S)-4-[(2-{4,7,10-tris[(carboxy-kappaO)methyl]-1,4,7,10-tetraazacyclododecan-1-yl-kappa^2N^1,N^4}acetamido)methyl]cyclohexane-1-carbonyl}alanyl]-N^2-{[(1S)-1,3-dicarboxypropyl]carbamoyl}-L-lysinato(3−)}(^227Th)Thorium [Example 36-B-227Th] | 3.88 | 0.75 | 0.16
2 | O=C(O)CC[C@H](NC(=O)N[C@@H](CCCCNC(=O)[C@@H](Cc1ccc2cnccc2c1)NC(=O)[C@H]1CC[C@H](CNC(=O)C[N+]23CCN4CCN5CC[N+]6(CC2)CC(=O)[O][227Th-2]36([O]C(=O)C4)[O]C(=O)C5)CC1)C(=O)O)C(=O)O [Example 44-B-227Th, (3R,10S,14S)-3-[(isoquinolin-6-yl)methyl]-1,4,12-trioxo-1-{(1r,4S)-4-[(2-{4,7,10-tris[(carboxy-kappaO)methyl]-1,4,7,10-tetraazacyclododecan-1-yl-kappa^2N^1,N^4}acetamido)methyl]cyclohexyl}-2,5,11,13-tetraazahexadecane-10,14,16-tricarboxylato(3−)(^227Th)Thorium] | 0.67 | 0.71 | 0.08
3 | O=C(O)CC[C@H](NC(=O)N[C@@H](CCCCNC(=O)[C@@H](Cc1ccc2ccncc2c1)NC(=O)[C@H]1CC[C@H](CNC(=O)C[N+]23CCN4CCN5CC[N+]6(CC2)CC(=O)[O][227Th-2]36([O]C(=O)C4)[O]C(=O)C5)CC1)C(=O)O)C(=O)O [Example 42-B-227Th, (3R,10S,14S)-3-[(isoquinolin-7-yl)methyl]-1,4,12-trioxo-1-{(1r,4S)-4-[(2-{4,7,10-tris[(carboxy-kappaO)methyl]-1,4,7,10-tetraazacyclododecan-1-yl-kappa^2N^1,N^4}acetamido)methyl]cyclohexyl}-2,5,11,13-tetraazahexadecane-10,14,16-tricarboxylato(3−)(^227Th)Thorium] | 0.72 | 0.70 | 0.10
4 | CNc1cc(C[C@@H](NC(=O)[C@H]2CC[C@H](CNC(=O)CN3CCN4CCN5CCN(CC3)CC(=O)[O][227Th]([O]C(=O)C4)[O]C(=O)C5)CC2)C(=O)NCCCC[C@H](NC(=O)N[C@@H](CCC(=O)O)C(=O)O)C(=O)O)cc2ccccc12 [Example 37-B-227Th, (3R,10S,14S)-3-{[4-(methylamino)naphthalen-2-yl]methyl}-1,4,12-trioxo-1-{(1r,4S)-4-[(2-{4,7,10-tris[(carboxy-kappaO)methyl]-1,4,7,10-tetraazacyclododecan-1-yl-kappa^2N^1,N^4}acetamido)methyl]cyclohexyl}-2,5,11,13-tetraazahexadecane-10,14,16-tricarboxylato(3−)(^227Th)Thorium] | 1.19 | 0.87 | 0.13
5 | Cc1cc2c(c(=O)n1CC(=O)O)[O][227Th]13[O]c4c(cc(C)n(CC(=O)O)c4=O)C(=O)NCCN(CCCN(CCNC(=O)c4cc(C)n(CC(=O)O)c(=O)c4[O]1)CCNC(=O)c1cc(C)n(CC(=O)NCc4ccc(C(=O)N[C@@H](Cc5ccc6ccccc6c5)C(=O)NCCCC[C@H](NC(=O)N[C@H](CCC(=O)O)C(=O)O)C(=O)O)nc4)c(=O)c1[O]3)CCNC2=O [Example 25-C-D-227Th] | 2.95 | 2.26 | 0.49
6 | O=C(O)CC[C@H](NC(=O)N[C@@H](CCCCNC(=O)[C@@H](Cc1ccc2cccnc2c1)NC(=O)[C@H]1CC[C@H](CNC(=O)C[N+]23CCN4CCN5CC[N+]6(CC2)CC(=O)[O][227Th-2]36([O]C(=O)C4)[O]C(=O)C5)CC1)C(=O)O)C(=O)O [Example 45-B-227Th, (3R,10S,14S)-1,4,12-trioxo-3-[(quinolin-7-yl)methyl]-1-{(1r,4S)-4-[(2-{4,7,10-tris[(carboxy-kappaO)methyl]-1,4,7,10-tetraazacyclododecan-1-yl-kappa^2N^1,N^4}acetamido)methyl]cyclohexyl}-2,5,11,13-tetraazahexadecane-10,14,16-tricarboxylato(3−)(^227Th)Thorium] | 1.02 | 0.94 | 0.14
7 | COc1c(C[C@@H](NC(=O)c2ccc(CNC(=O)CN3CCN(CC(=O)[O-])CCN(CC(=O)[O-])CCN(CC(=O)[O-])CC3)cn2)C(=O)NCCCC[C@H](NC(=O)N[C@@H](CCC(=O)O)C(=O)O)C(=O)O)ccc2ccccc12.[227Th+4] [Example 33a-B-227Th, (3R,10S,14S)-3-[(1-methoxynaphthalen-2-yl)methyl]-1,4,12-trioxo-1-{5-[(2-{4,7,10-tris[(carboxy-kappaO)methyl]-1,4,7,10-tetraazacyclododecan-1-yl-kappa^2N^1,N^4}acetamido)methyl]pyridin-2-yl}-2,5,11,13-tetraazahexadecane-10,14,16-tricarboxylato(3−)(^227Th)Thorium] | 4.63 | 1.22 | 0.20
8 | O=C(O)CC[C@H](NC(=O)N[C@@H](CCCCNC(=O)[C@@H](Cc1ccc2c(c1)CCCO2)NC(=O)[C@H]1CC[C@H](CNC(=O)C[N+]23CCN4CCN5CC[N+]6(CC2)CC(=O)[O][227Th-2]36([O]C(=O)C4)[O]C(=O)C5)CC1)C(=O)O)C(=O)O [Example 38-B-227Th, {N^6-[3-(3,4-dihydro-2H-1-benzopyran-6-yl)-N-{(1r,4S)-4-[(2-{4,7,10-tris[(carboxy-kappaO)methyl]-1,4,7,10-tetraazacyclododecan-1-yl-kappa^2N^1,N^4}acetamido)methyl]cyclohexane-1-carbonyl}-D-alanyl]-N^2-{[(1S)-1,3-dicarboxypropyl]carbamoyl}-L-lysinato(3−)}(^227Th)Thorium] | 0.91 | 0.44 | 0.10
